Assay results reported in article PMC10683025, “Discovery of a Hydroxylamine-Based Brain-Penetrant EGFR Inhibitor for Metastatic Non-Small-Cell Lung Cancer” (Journal of Medicinal Chemistry, 2023).

Assays:
[1] = molecular target: T1, ACVR2B (Homo sapiens, UniProt Q13705); assay: KINOMEScan; assay type: binding; conditions: read-out: Percent Control
T1 construct: purchased Eurofins DiscoverX (KINOMEscan)
Source text: (§4) Percent control was mapped onto the kinome tree using TREEspot.

[2] = tested on: AU565 (HER2-positive breast cancer); assay: CellTiter-Glo cell viability assay; assay type: cell-based, human; conditions: Homo sapiens, AU565; 72 h, unadjusted for FBS
Experimental: (§1) The A431, HCC827, SK-BR-3, ZR-75–30, AU565, and Caco-2 cell lines were obtained from ATCC. The NCI-H1975 cell line was obtained from SIBS. The NCI-H3255 cell line was obtained from CoBioer. Engineered Ba/F3 cell lines were obtained from Crown Bioscience. MCKII-MDR1 cells were obtained from The Netherlands Cancer Institute. HEK293 cells were obtained from Invitrogen. A431 cells were cultured in DMEM (Life Technologies) with 10% FBS. HCC827, NCI-H1975, and AU565 cells were cultured in RPMI1640 (Invitrogen) with 10% FBS. NCI-H3255 cells were cultured in BEGM (Lonza) with 10% FBS. Ba/F3 EGFR-del E746_A750/C797S and Ba/F3 EGFR-L858R/C797S cells were cultured in RPMI (Invitrogen) with 10% FBS. SK-BR-3 cells were cultured in McCoy’s 5a (Invitrogen) with 10% FBS. ZR-75-30 cells were cultured in RPMI1640 (Invitrogen) with 20% FBS. Caco-2 and MCKII-MDR1 culture information is given in the Permeability Studies section. HEK293 cells were cultured in DMEM (Gibco) with 10% FBS, 0.1 mM NEAA, 25 mM HEPES, 100 U/mL penicillin-streptomycin, μg/mL blasticidin, and 400 μg/mL Geneticin. All cells were cultured in a humidified incubator with 5% CO2 at 37 °C.
(§2) Viability assays using A431, HCC827, NCI-H1975, NCI-H3255, Ba/F3 EGFR-del E746_A750/C797S, Ba/F3 EGFR-L858R/C797S, AU565, SK-BR-3, and ZR-75-30 cells were performed at Crown BioScience. Cells were plated into 96-well plates at 1500–7000 cells per well and dosed in triplicate (n = 3) in a nine-point, 4-fold dilution series with compounds (0.15 nM to 10 μM) in DMSO and incubated for 72 h. After 72 h, cell viability was assayed by CellTiter-Glo Luminescent Viability Assay (Promega). Dose–response curves were generated and used to calculate the IC50 values which were calculated on GraphPad Prism from the nonlinear regression equation fitted with a sigmoidal dose response and are presented as mean ± SEM.

[3] = tested on: ZR-75-30 (HER2-positive breast cancer); assay: CellTiter-Glo cell viability assay; assay type: cell-based, human; conditions: Homo sapiens, ZR-75-30; 72 h, unadjusted for FBS
Experimental: as §1, §2

[4] = tested on: SK-BR-3 (HER2-positive breast cancer); assay: CellTiter-Glo cell viability assay; assay type: cell-based, human; conditions: Homo sapiens, SK-BR-3; 72 h, unadjusted for FBS
Experimental: as §1, §2

[5] = tested on: A431 cell line (overexpressed EGFRwt); assay: CellTiter-Glo cell viability assay; assay type: cell-based, human; conditions: Homo sapiens, A-431; 72 h, unadjusted for FBS
Experimental: as §1, §2

[6] = tested on: NCI-H1975 (EGFR mutation = L858R/T790M); assay: CellTiter-Glo cell viability assay; assay type: cell-based, human; conditions: Homo sapiens, NCI-H1975; 72 h, unadjusted for FBS
Experimental: as §1, §2

[7] = molecular target: T2, BRAF (Homo sapiens, UniProt P15056); assay: KINOMEScan; assay type: binding; conditions: read-out: Percent Control
T2 construct: purchased Eurofins DiscoverX (KINOMEscan)
T2 sequence (P15056 whole entry): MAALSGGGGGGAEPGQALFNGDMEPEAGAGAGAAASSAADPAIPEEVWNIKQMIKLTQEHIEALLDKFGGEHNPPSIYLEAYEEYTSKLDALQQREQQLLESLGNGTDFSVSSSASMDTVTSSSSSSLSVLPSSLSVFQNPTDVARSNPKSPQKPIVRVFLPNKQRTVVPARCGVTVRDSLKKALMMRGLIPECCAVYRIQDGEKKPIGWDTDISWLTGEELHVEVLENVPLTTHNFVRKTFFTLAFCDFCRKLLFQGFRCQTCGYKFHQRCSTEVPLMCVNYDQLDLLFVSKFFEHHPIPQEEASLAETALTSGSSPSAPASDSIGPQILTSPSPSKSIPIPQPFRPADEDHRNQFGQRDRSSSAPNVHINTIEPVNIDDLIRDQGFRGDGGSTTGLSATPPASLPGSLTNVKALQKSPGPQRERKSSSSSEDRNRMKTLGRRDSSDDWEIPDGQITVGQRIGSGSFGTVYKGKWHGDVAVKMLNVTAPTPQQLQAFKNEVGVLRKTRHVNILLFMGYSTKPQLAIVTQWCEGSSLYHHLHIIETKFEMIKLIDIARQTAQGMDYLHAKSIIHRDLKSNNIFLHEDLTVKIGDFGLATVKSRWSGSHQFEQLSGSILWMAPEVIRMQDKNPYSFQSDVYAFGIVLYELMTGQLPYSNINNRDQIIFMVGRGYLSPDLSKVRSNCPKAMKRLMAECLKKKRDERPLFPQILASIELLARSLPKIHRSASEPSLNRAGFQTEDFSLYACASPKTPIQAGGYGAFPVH
Source text: as §4

[8] = molecular target: T3, AAK1 (Homo sapiens, UniProt Q2M2I8); assay: KINOMEScan; assay type: binding; conditions: AAK1, 1 µM; read-out: Percent Control
T3 construct: purchased Eurofins DiscoverX
T3 sequence (Q2M2I8 whole entry): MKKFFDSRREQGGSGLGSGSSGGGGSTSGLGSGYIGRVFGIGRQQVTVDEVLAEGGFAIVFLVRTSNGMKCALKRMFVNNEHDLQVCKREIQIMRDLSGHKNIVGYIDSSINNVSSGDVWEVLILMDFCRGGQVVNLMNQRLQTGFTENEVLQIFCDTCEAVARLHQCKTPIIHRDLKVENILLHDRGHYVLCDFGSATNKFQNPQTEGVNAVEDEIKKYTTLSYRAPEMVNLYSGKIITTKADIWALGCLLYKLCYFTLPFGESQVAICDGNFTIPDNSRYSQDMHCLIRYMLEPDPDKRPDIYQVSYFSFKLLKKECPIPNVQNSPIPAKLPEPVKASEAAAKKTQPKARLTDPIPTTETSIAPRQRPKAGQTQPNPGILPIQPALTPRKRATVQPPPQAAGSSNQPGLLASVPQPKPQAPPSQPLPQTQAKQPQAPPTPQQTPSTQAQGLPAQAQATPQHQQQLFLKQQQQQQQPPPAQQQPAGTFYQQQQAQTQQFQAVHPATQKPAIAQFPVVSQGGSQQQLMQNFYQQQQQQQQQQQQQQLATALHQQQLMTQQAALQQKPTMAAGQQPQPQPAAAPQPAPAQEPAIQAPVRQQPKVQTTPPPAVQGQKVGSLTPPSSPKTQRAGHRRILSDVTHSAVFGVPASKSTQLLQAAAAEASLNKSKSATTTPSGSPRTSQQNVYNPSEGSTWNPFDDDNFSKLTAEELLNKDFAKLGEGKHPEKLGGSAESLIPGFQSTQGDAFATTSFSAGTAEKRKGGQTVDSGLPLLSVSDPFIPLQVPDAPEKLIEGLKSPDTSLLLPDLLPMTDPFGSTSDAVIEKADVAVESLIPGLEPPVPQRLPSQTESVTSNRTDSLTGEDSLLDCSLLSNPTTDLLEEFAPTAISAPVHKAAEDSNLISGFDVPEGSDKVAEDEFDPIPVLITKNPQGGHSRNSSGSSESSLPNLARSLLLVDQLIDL
Source text: as §4

[9] = molecular target: T4, ASK2 (Homo sapiens, UniProt O95382); assay: KINOMEScan; assay type: binding; conditions: ASK2, 1 µM; read-out: Percent Control
T4 construct: purchased Eurofins DiscoverX (KINOMEscan)
T4 sequence (O95382 whole entry): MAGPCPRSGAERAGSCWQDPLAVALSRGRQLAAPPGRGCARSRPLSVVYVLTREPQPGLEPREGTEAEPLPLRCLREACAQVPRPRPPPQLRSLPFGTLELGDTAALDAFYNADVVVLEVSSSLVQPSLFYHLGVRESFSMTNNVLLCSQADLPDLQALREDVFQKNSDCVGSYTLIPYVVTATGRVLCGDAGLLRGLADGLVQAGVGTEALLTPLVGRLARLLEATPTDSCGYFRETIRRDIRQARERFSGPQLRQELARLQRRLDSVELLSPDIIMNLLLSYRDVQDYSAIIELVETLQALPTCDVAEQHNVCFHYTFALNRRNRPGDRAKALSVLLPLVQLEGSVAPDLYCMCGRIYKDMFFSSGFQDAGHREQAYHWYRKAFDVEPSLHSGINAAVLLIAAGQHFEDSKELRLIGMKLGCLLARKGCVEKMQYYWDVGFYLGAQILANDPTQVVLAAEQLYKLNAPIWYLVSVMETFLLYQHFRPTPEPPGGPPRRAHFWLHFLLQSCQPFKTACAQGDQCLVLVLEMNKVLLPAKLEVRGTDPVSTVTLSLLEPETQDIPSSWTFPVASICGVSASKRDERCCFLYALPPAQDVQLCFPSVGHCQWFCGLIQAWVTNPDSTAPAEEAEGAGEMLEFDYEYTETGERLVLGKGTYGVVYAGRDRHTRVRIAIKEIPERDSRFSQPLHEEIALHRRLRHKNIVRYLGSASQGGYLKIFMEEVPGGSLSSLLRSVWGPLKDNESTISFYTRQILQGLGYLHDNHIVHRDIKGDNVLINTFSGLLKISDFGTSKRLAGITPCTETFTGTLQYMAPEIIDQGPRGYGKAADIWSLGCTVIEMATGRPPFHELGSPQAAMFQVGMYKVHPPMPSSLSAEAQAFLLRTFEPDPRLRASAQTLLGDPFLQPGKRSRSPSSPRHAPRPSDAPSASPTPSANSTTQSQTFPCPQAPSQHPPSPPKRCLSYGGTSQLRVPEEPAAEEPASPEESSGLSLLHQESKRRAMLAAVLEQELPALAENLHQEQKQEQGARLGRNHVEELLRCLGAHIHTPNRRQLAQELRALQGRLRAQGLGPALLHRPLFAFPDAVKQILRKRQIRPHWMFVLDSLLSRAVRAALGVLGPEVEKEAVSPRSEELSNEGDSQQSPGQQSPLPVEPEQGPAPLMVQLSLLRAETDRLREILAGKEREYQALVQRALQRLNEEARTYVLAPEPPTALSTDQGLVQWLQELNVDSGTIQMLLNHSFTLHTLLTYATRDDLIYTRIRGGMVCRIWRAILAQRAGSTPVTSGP

[10] = molecular target: T5, ABL1(Q252H)-phosphorylated (Homo sapiens, UniProt P00519, Q252H); assay: KINOMEScan; assay type: binding; conditions: read-out: Percent Control
T5 construct: purchased Eurofins DiscoverX
Source text: as §4

[11] = molecular target: T6, ABL1(Y253F)-phosphorylated (Homo sapiens, UniProt P00519, Y253F); assay: KINOMEScan; assay type: binding; conditions: read-out: Percent Control
T6 construct: purchased Eurofins DiscoverX
Source text: as §4

[12] = molecular target: T7, BRAF(V600E) (Homo sapiens, UniProt P15056, V600E); assay: KINOMEScan; assay type: binding; conditions: read-out: Percent Control
T7 construct: purchased Eurofins DiscoverX (KINOMEscan)
T7 sequence (P15056 whole entry V600E): as the sequence (P15056 whole entry) above, with V600E counted along it
Source text: as §4

[13] = molecular target: T8, ABL1(T315I)-nonphosphorylated (Homo sapiens, UniProt P00519, T315I); assay: KINOMEScan; assay type: binding; conditions: read-out: Percent Control
T8 construct: purchased Eurofins DiscoverX
Source text: as §4

[14] = molecular target: T9, BLK (Homo sapiens, UniProt P51451); assay: KINOMEScan; assay type: binding; conditions: read-out: Percent Control
T9 construct: purchased Eurofins DiscoverX (KINOMEscan)
T9 sequence (P51451 whole entry): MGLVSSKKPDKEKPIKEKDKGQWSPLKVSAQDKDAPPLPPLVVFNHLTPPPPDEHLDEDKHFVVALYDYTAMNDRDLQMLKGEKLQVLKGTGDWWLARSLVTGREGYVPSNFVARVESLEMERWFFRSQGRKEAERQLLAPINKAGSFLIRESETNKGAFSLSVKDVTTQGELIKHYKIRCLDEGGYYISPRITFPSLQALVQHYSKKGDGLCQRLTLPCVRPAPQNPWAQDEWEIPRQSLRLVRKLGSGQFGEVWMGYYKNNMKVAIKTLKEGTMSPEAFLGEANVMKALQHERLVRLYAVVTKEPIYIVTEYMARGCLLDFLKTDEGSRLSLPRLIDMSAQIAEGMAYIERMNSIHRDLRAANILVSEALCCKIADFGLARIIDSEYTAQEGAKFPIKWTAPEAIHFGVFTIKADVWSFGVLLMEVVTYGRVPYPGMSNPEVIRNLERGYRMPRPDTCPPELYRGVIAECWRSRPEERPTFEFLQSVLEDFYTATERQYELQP
Source text: as §4

[15] = molecular target: T10, ABL1(E255K)-phosphorylated (Homo sapiens, UniProt P00519, E255K); assay: KINOMEScan; assay type: binding; conditions: read-out: Percent Control
T10 construct: purchased Eurofins DiscoverX
Source text: as §4

[16] = molecular target: T11, LYN (Homo sapiens, UniProt P07948); assay: KINOMEScan KdELECT Kd determination; assay type: binding; conditions: read-out: Kinase Kd
T11 construct: purchased Eurofins DiscoverX (contract assay)
Experimental: (§3) In vitro kinase activity (inhibitor binding constants (Kd) and biochemical inhibition (IC50’s)) were assessed by Eurofins DiscoverX (Kd determinations) and Eurofins Cerep (biochemical IC50 determinations).

[17] = molecular target: T12, DRAK1 (Homo sapiens, UniProt Q9UEE5); assay: KINOMEScan KdELECT Kd determination; assay type: binding; conditions: read-out: Kinase Kd
T12 construct: purchased Eurofins DiscoverX (contract assay)
T12 sequence (Q9UEE5 1-414): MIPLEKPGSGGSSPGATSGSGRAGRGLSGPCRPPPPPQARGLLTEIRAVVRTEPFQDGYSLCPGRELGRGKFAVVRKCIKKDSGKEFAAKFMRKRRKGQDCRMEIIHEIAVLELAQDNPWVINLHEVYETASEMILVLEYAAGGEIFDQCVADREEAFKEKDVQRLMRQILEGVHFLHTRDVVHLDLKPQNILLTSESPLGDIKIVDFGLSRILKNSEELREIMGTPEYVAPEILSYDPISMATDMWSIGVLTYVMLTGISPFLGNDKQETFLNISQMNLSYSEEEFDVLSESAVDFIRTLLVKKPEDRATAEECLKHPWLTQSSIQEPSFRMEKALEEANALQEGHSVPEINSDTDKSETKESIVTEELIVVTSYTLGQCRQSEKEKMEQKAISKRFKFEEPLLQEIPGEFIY
Experimental: as §3

[18] = molecular target: T13, BCR-ABLwt (Phos.) (Homo sapiens, UniProt P00519); assay: KINOMEScan KdELECT Kd determination; assay type: binding; conditions: read-out: Kinase Kd
T13 construct: purchased Eurofins DiscoverX (contract assay)
Experimental: as §3

[19] = molecular target: T14, BCR-ABLwt (Nonphos.) (Homo sapiens, UniProt P00519); assay: KINOMEScan KdELECT Kd determination; assay type: binding; conditions: read-out: Kinase Kd
T14 construct: purchased Eurofins DiscoverX (contract assay)
Experimental: as §3

[20] = molecular target: T15, AXL (Homo sapiens, UniProt P30530); assay: KINOMEScan; assay type: binding; conditions: read-out: Percent Control
T15 construct: purchased Eurofins DiscoverX (KINOMEscan)
T15 sequence (P30530 26-894): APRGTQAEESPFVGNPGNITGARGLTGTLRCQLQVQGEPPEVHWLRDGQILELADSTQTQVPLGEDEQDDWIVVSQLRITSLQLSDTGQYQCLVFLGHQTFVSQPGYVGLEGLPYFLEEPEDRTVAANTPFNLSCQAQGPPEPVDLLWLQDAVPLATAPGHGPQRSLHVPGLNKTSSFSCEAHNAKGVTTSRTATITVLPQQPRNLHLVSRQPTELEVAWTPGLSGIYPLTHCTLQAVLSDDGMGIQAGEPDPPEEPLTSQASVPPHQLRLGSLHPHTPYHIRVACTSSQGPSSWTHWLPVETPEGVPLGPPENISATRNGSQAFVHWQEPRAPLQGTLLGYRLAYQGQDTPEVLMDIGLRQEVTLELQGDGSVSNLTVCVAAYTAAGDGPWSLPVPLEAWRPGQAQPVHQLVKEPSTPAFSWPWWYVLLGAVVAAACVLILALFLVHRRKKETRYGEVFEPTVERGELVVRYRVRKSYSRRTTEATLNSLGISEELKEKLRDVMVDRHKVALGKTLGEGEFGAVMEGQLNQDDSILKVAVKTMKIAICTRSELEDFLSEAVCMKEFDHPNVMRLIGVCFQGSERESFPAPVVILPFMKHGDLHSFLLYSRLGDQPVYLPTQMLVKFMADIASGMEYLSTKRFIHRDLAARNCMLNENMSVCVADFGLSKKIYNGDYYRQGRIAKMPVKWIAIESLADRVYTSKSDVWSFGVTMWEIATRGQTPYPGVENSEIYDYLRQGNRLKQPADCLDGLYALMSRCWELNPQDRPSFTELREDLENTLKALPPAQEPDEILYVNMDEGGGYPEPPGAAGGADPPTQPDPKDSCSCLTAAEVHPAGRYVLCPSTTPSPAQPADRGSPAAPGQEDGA
Source text: as §4

T1 sequence (Q13705 19-512): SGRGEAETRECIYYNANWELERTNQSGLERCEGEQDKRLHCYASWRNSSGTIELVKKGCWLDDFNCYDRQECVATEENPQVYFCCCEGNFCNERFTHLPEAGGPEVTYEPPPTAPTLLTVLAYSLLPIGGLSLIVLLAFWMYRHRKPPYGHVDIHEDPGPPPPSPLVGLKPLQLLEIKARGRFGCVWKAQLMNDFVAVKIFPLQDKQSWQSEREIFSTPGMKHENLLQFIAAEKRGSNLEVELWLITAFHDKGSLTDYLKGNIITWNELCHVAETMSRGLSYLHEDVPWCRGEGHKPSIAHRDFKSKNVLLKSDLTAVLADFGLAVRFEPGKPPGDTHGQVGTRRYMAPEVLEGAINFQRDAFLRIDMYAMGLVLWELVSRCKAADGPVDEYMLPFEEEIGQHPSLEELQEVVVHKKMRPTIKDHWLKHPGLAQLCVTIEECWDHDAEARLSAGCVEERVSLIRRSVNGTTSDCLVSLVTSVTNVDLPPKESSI

## COc1cc2ncnc(Nc3cccc(Cl)c3F)c2cc1OCCON1CCN(C)CC1 [Compound 9, N-(3-Chloro-2-fluorophenyl)-7-methoxy-6-(2-((4-methylpiperazin-1-yl)oxy)ethoxy)quinazolin-4-amine]
[1]
  remaining binding at 1 µM: 100%
[2]
  IC50: 0.986 ± 0.138 µM
[3]
  IC50: 1.63 µM
[4]
  IC50: 1.51 µM
[5]
  IC50: 0.083 µM
[6]
  IC50: > 10 µM
[7]
  remaining binding at 1 µM: 89%
[8]
  remaining binding at 1 µM: 92%
[9]
  remaining binding at 1 µM: 85%
[10]
  remaining binding at 1 µM: 8.8%
[11]
  remaining binding at 1 µM: 6.6%
[12]
  remaining binding at 1 µM: 82%
[13]
  remaining binding at 1 µM: 68%
[14]
  remaining binding at 1 µM: 16%
[15]
  remaining binding at 1 µM: 6.4%
[16]
  Kd: 0.11 µM
[17]
  Kd: 0.087 µM
[18]
  Kd: 0.18 µM
[19]
  Kd: 0.26 µM
[20]
  remaining binding at 1 µM: 100%
